# Results taken from patent US8492346B2, “Methods of use of epsilon inhibitor compounds for the attenuation of pain” (KAI Pharmaceuticals, Inc., priority 2007, dated 2013).
# Like-named read-outs stand apart in the source and are kept apart here.
# Assay: Rat pharmacokinetics, plasma levels by sandwich-based ELISA
# Format: in vivo
# Protocol: To initially characterize the pharmacokinetics of KAI-1678 in rats, male rats were administered KAI-1678 at doses of 100 and 1,000 mcg/rat (˜300 and ˜3,000 mcg/kg) as an IV bolus injection via the tail vein. Blood samples were withdrawn periodically for up to two hours following the injection for plasma analysis of KAI-1678 levels. There were three and two animals in the 100 and 1,000 mcg dose groups, respectively, and there was consistency in KAI-1678 plasma concentrations between animals in each dose group.
# In the experiment shown in FIG. 29, male rats were administered KAI-1678 as a subcutaneous bolus injection (200 microL into the left hindleg) at doses of 25 or 250 mcg/animal (approximately 80 and 800 mcg/kg, respectively). Blood samples were taken at various time points over two hours after administration of the compound to determine plasma concentrations of KAI-1678. There were three and four animals in the 25 and 250 mcg/animal dose groups, respectively, and the KAI-1678 plasma concentration measurements were consistent between animals in each dose group. Cmax occurred within 10 minutes after injection and increased in a dose-proportional manner over the two doses tested.
# In the experiment shown in FIG. 30, male rats were administered KAI-1678 as a continuous subcutaneous infusion for 2 hours at doses of 19 and 190 mcg/kg/hr. Blood samples were taken at various time points throughout the infusion and for 1 hour after the end of infusion to determine plasma concentrations of KAI-1678. There were two animals per dose group and the plasma KAI-1678 concentration measurements were consistent between animals in each dose group. At the lower dose rate (19 mcg/kg/hr), plasma concentrations reached steady state (˜3 ng/mL) by 60 minutes and remained relatively constant throughout the rest of the infusion. […] At both dose rates, plasma concentrations of KAI-1678 dropped quickly after the end of infusion although compound was still detectable at both dose levels one hour after the end of infusion.
substance,measurement,setting,value
Ac-EAVSLKPTGGYGRKKRRQRRR-NH2 [KAI-1678],Clearance from systemic circulation,intravenous bolus,rapidly cleared from systemic circulation
same,level at 1 h,"male, rat, plasma, sc, 19 ug/kg/hr, subcutaneous infusion 19 mcg/kg/hr, by 60 minutes, read-out: Steady state plasma concentration",~3 ng/mL
same,Tmax,"male, rat, plasma, sc, subcutaneous bolus, read-out: Time of maximum plasma concentration (converted)",~10 min
same,half-life,"rat, in vivo, iv, 300 ug/kg, IV bolus ~300 mcg/kg, preliminary, read-out: Terminal half-life",~38 min
same,half-life,"rat, in vivo, iv, IV bolus ~300 mcg/kg, preliminary, read-out: Terminal half-life",~38 min
same,half-life,"rat, in vivo, iv, IV bolus ~3,000 mcg/kg, preliminary, read-out: Terminal half-life",~66 min
same,half-life,"rat, in vivo, iv, intravenous bolus, read-out: Terminal half-life",~50 min
same,half-life,"rat, in vivo, sc, 800 ug/kg, subcutaneous bolus approximately 80 and 800 mcg/kg, read-out: Terminal half-life",~35 min
same,half-life,"rat, in vivo, sc, subcutaneous infusion, read-out: Half-life after end of infusion",~30 min
same,Cmax,"rat, in vivo, sc, subcutaneous infusion 190 mcg/kg/hr for 2 hours",~60 ng/mL
same,bioavailability,"rat, in vivo, sc, subcutaneous route vs intravenous bolus",~10%
same,Dose proportionality of exposure,"subcutaneous bolus (80, 800 mcg/kg) or infusion (19, 190 mcg/kg/hr)",dose-proportional increases in exposures
same,Half-life after end of infusion,subcutaneous infusion,~45 min
same,Time of maximum plasma concentration,subcutaneous infusion,~1 h
